Experimental data published in US20250186434A1, “SOS1 PROTEIN DEGRADERS, PHARMACEUTICAL COMPOSITIONS THEREOF, AND THEIR THERAPEUTIC APPLICATIONS” (BioTheryX, Inc., priority 2022, published 2025).

Target: T1, HiBiT-tagged endogenous SOS1 protein (Homo sapiens, UniProt Q07889)
T1 construct: HEK293 cells were engineered to express a HiBiT-tagged endogenous SOS1 protein; endogenous in cells; host or cells: HEK293 (engineered, HiBiT knock-in at the endogenous SOS1 locus)
T1 sequence (Q07889 1-1333): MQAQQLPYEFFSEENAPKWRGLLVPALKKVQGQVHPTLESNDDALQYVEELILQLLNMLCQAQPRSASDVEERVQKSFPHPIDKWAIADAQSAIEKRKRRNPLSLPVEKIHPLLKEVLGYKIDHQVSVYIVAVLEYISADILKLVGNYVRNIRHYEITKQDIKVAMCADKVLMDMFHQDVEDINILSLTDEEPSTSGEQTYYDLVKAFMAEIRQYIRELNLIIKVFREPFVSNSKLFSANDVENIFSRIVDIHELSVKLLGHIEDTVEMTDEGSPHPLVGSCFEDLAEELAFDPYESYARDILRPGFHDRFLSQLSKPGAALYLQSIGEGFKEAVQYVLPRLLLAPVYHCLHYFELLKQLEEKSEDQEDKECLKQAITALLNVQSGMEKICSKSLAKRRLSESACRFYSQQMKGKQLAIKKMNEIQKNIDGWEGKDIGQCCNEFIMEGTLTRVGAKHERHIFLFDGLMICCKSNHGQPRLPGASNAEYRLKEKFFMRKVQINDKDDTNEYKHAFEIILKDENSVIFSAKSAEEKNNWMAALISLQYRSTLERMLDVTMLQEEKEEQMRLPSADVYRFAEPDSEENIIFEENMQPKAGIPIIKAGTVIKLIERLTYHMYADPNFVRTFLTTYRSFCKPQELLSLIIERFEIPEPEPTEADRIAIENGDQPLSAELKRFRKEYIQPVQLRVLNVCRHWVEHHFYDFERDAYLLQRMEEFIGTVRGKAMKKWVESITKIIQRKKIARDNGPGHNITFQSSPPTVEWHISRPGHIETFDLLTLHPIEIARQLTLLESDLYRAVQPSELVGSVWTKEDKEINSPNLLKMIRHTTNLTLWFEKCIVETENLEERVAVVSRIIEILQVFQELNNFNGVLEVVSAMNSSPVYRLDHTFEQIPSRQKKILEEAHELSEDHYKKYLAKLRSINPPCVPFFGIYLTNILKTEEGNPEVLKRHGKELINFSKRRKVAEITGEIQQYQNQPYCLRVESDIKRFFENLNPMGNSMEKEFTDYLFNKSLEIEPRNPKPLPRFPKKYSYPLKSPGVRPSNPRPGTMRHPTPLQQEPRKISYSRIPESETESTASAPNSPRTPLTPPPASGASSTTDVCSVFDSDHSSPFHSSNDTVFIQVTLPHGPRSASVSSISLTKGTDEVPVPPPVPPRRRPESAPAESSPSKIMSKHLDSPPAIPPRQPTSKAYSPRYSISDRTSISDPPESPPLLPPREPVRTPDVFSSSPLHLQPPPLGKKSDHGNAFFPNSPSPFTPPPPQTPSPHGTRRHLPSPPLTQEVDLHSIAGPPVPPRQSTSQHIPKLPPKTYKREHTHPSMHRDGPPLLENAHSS
Assay: SOS1-HiBiT Degradation Assay
Type: cell-based
Details: HEK293 cells expressing HiBiT-tagged endogenous SOS1, 6 h treatment
Procedure: HEK293 cells were engineered to express a HiBiT-tagged endogenous SOS1 protein. The cells were cultured in DMEM media supplemented with 10% fetal bovine serum, streptomycin, and penicillin. The cells were seeded in a white walled 384-well plate at 12,500 cells/well in 50 μL culture media. The cells were incubated at 37° C. under 5% CO2 overnight. The cells were then treated with DMSO (control) or a compound for 6 h at 37° C. under 5% CO2. After incubation, 25 μL media was removed from each cell and 25 μL NANO-GLO® lytic detection reagent was added to each well. After a 10 min incubation with shaking, luminescence was measured using a PERKINELMER ENVISION® multimode plate reader.

Row | DC50 [nM] | Dmax [%] | Compound
1 | > 2000 | < 30 | Cc1c([C@@H](C)Nc2nnc(C)c3ccc(N4CCN(CCCCCN5CCN(C(=O)CNc6ccc(C7CCC(=O)NC7=O)cc6)CC5)CC4)cc23)cccc1C(F)(F)F (stereo partly drawn) [Compound A301, 3-(4-((2-(4-(5-(4-(1-Methyl-4-(((R)-1-(2-methyl-3-(trifluoromethyl)phenyl)-ethyl)amino)phthalazin-6-yl)piperazin-1-yl)pentyl)piperazin-1-yl)-2-oxoethyl)amino)phenyl)-piperidine-2,6-dione]
2 | ≤ 100 | ≥ 70 | Cc1c([C@@H](C)Nc2nnc(C)c3ccc(N4CCN(CCCCCCCCCN5CCN(C(=O)CNc6ccc(C7CCC(=O)NC7=O)cc6)CC5)CC4)cc23)cccc1C(F)(F)F (stereo partly drawn) [Compound A303, 3-(4-((2-(4-(9-(4-(1-methyl-4-(((R)-1-(2-methyl-3-(trifluoromethyl)phenyl)-ethyl)amino)phthalazin-6-yl)piperazin-1-yl)nonyl)piperazin-1-yl)-2-oxoethyl)amino)phenyl)-piperidine-2,6-dione]

Second part, the compound before the results:

Row | Compound | DC50 [nM] | Dmax [%]
3 | COc1cc2nc(C)nc(N[C@H](C)c3cc(N)cc(C(F)(F)F)c3)c2cc1OC [Compound C1, (R)—N-(1-(3-amino-5-(trifluoromethyl)phenyl)ethyl)-6,7-dimethoxy-2-methylquinazolin-4-amine, reference compound] | > 10000 | –
4 | Cc1c([C@@H](C)Nc2nnc(C)c3ccc(N4CCN(CCCCCCCCCN5CCC(c6cc7c(cc6F)C(=O)N(C6CCC(=O)NC6=O)C7)CC5)CC4)cc23)cccc1C(F)(F)F (stereo partly drawn) [Compound A103, 3-(6-Fluoro-5-(1-(9-(4-(1-methyl-4-(((R)-1-(2-methyl-3-(trifluoromethyl)phenyl)-ethyl)amino)phthalazin-6-yl)piperazin-1-yl)nonyl)piperidin-4-yl)-1-oxoisoindolin-2-yl)-piperidine-2,6-dione] | ≤ 100 | ≥ 70
5 | Cc1c([C@@H](C)Nc2nnc(C)c3ccc(N4CCN(CCCCCCCCCN5CCN(C(=O)CNc6cccc7c(C8CCC(=O)NC8=O)nn(C)c67)CC5)CC4)cc23)cccc1C(F)(F)F (stereo partly drawn) [Compound A203, 3-(1-methyl-7-((2-(4-(9-(4-(1-methyl-4-(((R)-1-(2-methyl-3-(trifluoromethyl)-phenyl)ethyl)amino)phthalazin-6-yl)piperazin-1-yl)nonyl)piperazin-1-yl)-2-oxoethyl)amino)-1H-indazol-3-yl)piperidine-2,6-dione] | ≤ 100 | ≥ 70
6 | Cc1c([C@@H](C)Nc2nnc(C)c3ccc(N4CCN(CCCCCN5CCC(c6cc7c(cc6F)C(=O)N(C6CCC(=O)NC6=O)C7)CC5)CC4)cc23)cccc1C(F)(F)F (stereo partly drawn) [Compound A101, 3-(6-fluoro-5-(1-(5-(4-(1-methyl-4-(((R)-1-(2-methyl-3-(trifluoromethyl)phenyl)-ethyl)amino)phthalazin-6-yl)piperazin-1-yl)pentyl)piperidin-4-yl)-1-oxoisoindolin-2-yl)-piperidine-2,6-dione] | ≤ 100 | ≥ 70
